Here are results for twelve compounds from ChEMBL document CHEMBL1201862, “PubChem BioAssay data set” (2004).

Some test systems named below: SF-268; LXFL 529; UACC-257; M19-MEL; OVCAR-4; SN12C; 786-0; A498; NCI-H226; A549; HCT-15; SK-MEL-28; CAKI-1; HT-29; SNB-19; NCI-H522; Malme-3M.
Holding throughout (assay): NCI-60 cell line screen, 48 h

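Step 1: Grow cells in 96-well plates. Step 2: Expose to compound for 48 hours at 5 concentrations. Step 3: Interpolate endpoints linearly; if unreached, use highest concentration. At the GI50, growth is halved.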 Active and inactive are the calls of the source. Rule as the data show it: active = GI50 up to about 1.1 µM and inactive = higher.

With `C#CCN(Cc1ccc2nc(-c3ccccc3)c(Cl)nc2c1)c1cc(OC)c(OC)c(OC)c1`, the GI50 with SF-268 was 40.4 µM (inactive); with LXFL 529, > 100 µM (inactive); with UACC-257, 39.2 µM (inactive); with M19-MEL it was > 100 µM (inactive); in the experiment with OVCAR-4, > 100 µM (inactive); in the experiment with SN12C, > 100 µM (inactive). The GI50 with 786-0 is > 100 µM (inactive); with A498, > 100 µM (inactive); in the experiment on NCI-H226, > 100 µM (inactive); in the experiment on A549, 86.9 µM (inactive); with HCT-15, over 100 µM; with SK-MEL-28, > 100 µM (inactive). In addition, the GI50 in the experiment with CAKI-1, with HT-29, in the experiment with SNB-19, in the experiment on NCI-H522 and with Malme-3M was > 100 µM (inactive) in each case.

With `COC(=O)C(C)Oc1ccc(O)cc1` (centres undefined), the GI50 with SF-268 was 20.6 µM (inactive); in the experiment on LXFL 529 it was > 100 µM (inactive); with UACC-257 it was > 100 µM (inactive); in the experiment with M19-MEL, > 100 µM (inactive); in the experiment on OVCAR-4 it was > 100 µM (inactive); in the experiment on SN12C, > 100 µM (inactive). In addition, the GI50 is > 100 µM (inactive) in the experiment on 786-0; > 100 µM (inactive) with A498; > 100 µM (inactive) with NCI-H226; 63 µM (inactive) in the experiment on A549; over 100 µM with HCT-15; 29.2 µM (inactive) in the experiment on SK-MEL-28. Besides, the GI50 in the experiment on CAKI-1, in the experiment with HT-29, with SNB-19, in the experiment with NCI-H522 and in the experiment with Malme-3M was > 100 µM (inactive) throughout.

As for `C1CN2N3CCCC23C1` (centres undefined), the GI50 with SF-268, in the experiment on LXFL 529, in the experiment with UACC-257, with M19-MEL, with OVCAR-4 and with SN12C was > 100 µM (inactive) throughout. Also, the GI50 is > 100 µM (inactive) in the experiment with 786-0; > 100 µM (inactive) in the experiment with A498; > 100 µM (inactive) in the experiment with NCI-H226; > 100 µM (inactive) with A549; over 100 µM in the experiment with HCT-15; > 100 µM (inactive) with SK-MEL-28. Moreover, the GI50 in the experiment on CAKI-1, in the experiment with HT-29, in the experiment on SNB-19, in the experiment on NCI-H522 and in the experiment on Malme-3M was > 100 µM (inactive) in each case.

On to `N#Cc1cccnc1Cl`, for which the GI50 with SF-268, in the experiment with LXFL 529, with UACC-257, with M19-MEL, with OVCAR-4 and in the experiment with SN12C was > 100 µM (inactive) each time. For the same compound, the GI50 was > 100 µM (inactive) in the experiment with 786-0; > 100 µM (inactive) with A498; > 100 µM (inactive) in the experiment on NCI-H226; > 100 µM (inactive) in the experiment on A549; over 100 µM with HCT-15; > 100 µM (inactive) with SK-MEL-28. The GI50 with CAKI-1, with HT-29, in the experiment with SNB-19, with NCI-H522 and in the experiment with Malme-3M was > 100 µM (inactive) each time.

As to `O=C1C=Cc2noc3cccc1c23`, the GI50 is 3.15 µM (inactive) in the experiment on SF-268; 1.94 µM (inactive) with LXFL 529; 12.6 µM (inactive) in the experiment with UACC-257; 3.18 µM (inactive) in the experiment with M19-MEL; 2.07 µM (inactive) with OVCAR-4; 11.7 µM (inactive) with SN12C. Moreover, the GI50 was 7.08 µM (inactive) with 786-0; 13.6 µM (inactive) in the experiment with A498; 19.1 µM (inactive) in the experiment on NCI-H226; 19 µM (inactive) with A549; 3.08 µM in the experiment on HCT-15; 5.47 µM (inactive) in the experiment on SK-MEL-28. The GI50 is 12.5 µM (inactive) in the experiment on CAKI-1; 15.1 µM (inactive) with HT-29; 17.5 µM (inactive) in the experiment on SNB-19; 1.29 µM (inactive) with NCI-H522; 12.3 µM (inactive) in the experiment with Malme-3M.

`O=C(/C=C/c1ccccc1O)c1ccc([N+](=O)[O-])cc1`: the GI50 in the experiment on SF-268 was 18 µM (inactive); in the experiment with LXFL 529, 13.4 µM (inactive); in the experiment with UACC-257, 53.3 µM (inactive); with M19-MEL it was 18.4 µM (inactive); in the experiment on OVCAR-4 it was 12 µM (inactive); in the experiment with SN12C it was 15.5 µM (inactive). Further, the GI50 in the experiment on 786-0 is 17.3 µM (inactive); with A498 it was 20.8 µM (inactive); with NCI-H226 it was 18 µM (inactive); in the experiment on A549, 22.5 µM (inactive); in the experiment with HCT-15 it was 17 µM; with SK-MEL-28, 16.1 µM (inactive). For the same compound, the GI50 with CAKI-1 is 18.5 µM (inactive); with HT-29, 19.9 µM (inactive); with SNB-19 it was 16.6 µM (inactive); in the experiment on NCI-H522, 17.3 µM (inactive); in the experiment on Malme-3M, 44 µM (inactive).

For the compound `O=C(N[C@@H]1C=CCC[C@@H]1c1ccccc1)OCc1ccccc1`, the GI50 is 25 µM (inactive) in the experiment on SF-268; 18.8 µM (inactive) with LXFL 529; 17.5 µM (inactive) in the experiment with UACC-257; 21.5 µM (inactive) in the experiment with M19-MEL; 18.6 µM (inactive) with OVCAR-4; 16.9 µM (inactive) in the experiment with SN12C. Further, the GI50 in the experiment on 786-0 was 18.7 µM (inactive); in the experiment with A498 it was 19.1 µM (inactive); in the experiment with NCI-H226, 19 µM (inactive); with A549, 25.6 µM (inactive); in the experiment on HCT-15, 17.9 µM; with SK-MEL-28, 21.9 µM (inactive). For the same compound, the GI50 is 12.2 µM (inactive) in the experiment with CAKI-1; 23.7 µM (inactive) in the experiment on HT-29; 32.7 µM (inactive) in the experiment on SNB-19; 14.8 µM (inactive) in the experiment on NCI-H522; 19.3 µM (inactive) with Malme-3M.

`NCCNC(=O)c1cccc2cc3ccccc3nc12`: the GI50 with SF-268 was 1.61 µM (inactive); with LXFL 529, 4.95 µM (inactive); in the experiment with UACC-257 it was 2.82 µM (inactive); in the experiment on M19-MEL, 1.79 µM (inactive); with OVCAR-4, 3.75 µM (inactive); in the experiment on SN12C, 2.45 µM (inactive). The GI50 in the experiment on 786-0 is 7.6 µM (inactive); with A498, 1.81 µM (inactive); with NCI-H226, 1.43 µM (inactive); in the experiment with A549 it was 1.27 µM (inactive); in the experiment with HCT-15, 1.91 µM; in the experiment with SK-MEL-28 it was 3 µM (inactive). The GI50 in the experiment with CAKI-1 was 3.15 µM (inactive); in the experiment on HT-29, 1.87 µM (inactive); in the experiment with SNB-19, 4.09 µM (inactive); in the experiment with NCI-H522 it was 3.57 µM (inactive); in the experiment with Malme-3M, 0.495 µM (active).

`O=C(CC1=Nc2nnc(-c3nnc4n3C(=O)C(CC(=O)C3CC3)=N4)n2C1=O)C1CC1`: the GI50 with SF-268, with LXFL 529, in the experiment on UACC-257, in the experiment with M19-MEL, with OVCAR-4 and with SN12C was > 100 µM (inactive) in each case. In addition, the GI50 with 786-0 was > 100 µM (inactive); with A498, > 100 µM (inactive); with NCI-H226, > 100 µM (inactive); with A549 it was > 100 µM (inactive); in the experiment with HCT-15, over 100 µM; in the experiment with SK-MEL-28, > 100 µM (inactive). The GI50 in the experiment on CAKI-1, in the experiment on HT-29, in the experiment with SNB-19, in the experiment with NCI-H522 and with Malme-3M was > 100 µM (inactive) each time.

For the compound `CNc1nc(N)cc(O)n1`, the GI50 with SF-268, in the experiment with LXFL 529, in the experiment on UACC-257, with M19-MEL, in the experiment with OVCAR-4 and in the experiment with SN12C was > 100 µM (inactive) in each case. The GI50 is > 100 µM (inactive) in the experiment on 786-0; > 100 µM (inactive) in the experiment on A498; > 100 µM (inactive) with NCI-H226; > 100 µM (inactive) in the experiment with A549; over 100 µM in the experiment with HCT-15; > 100 µM (inactive) in the experiment with SK-MEL-28. Besides, the GI50 with CAKI-1, in the experiment with HT-29, in the experiment on SNB-19, in the experiment on NCI-H522 and with Malme-3M was > 100 µM (inactive) each time.

For `O=[PH](O)c1ccccn1`, the GI50 with SF-268, in the experiment on LXFL 529, with UACC-257, with M19-MEL, with OVCAR-4 and in the experiment with SN12C was > 100 µM (inactive) throughout. Besides, the GI50 with 786-0 was > 100 µM (inactive); with A498, > 100 µM (inactive); in the experiment on NCI-H226, > 100 µM (inactive); with A549, > 100 µM (inactive); with HCT-15, over 100 µM; with SK-MEL-28 it was > 100 µM (inactive). In addition, the GI50 in the experiment on CAKI-1, in the experiment with HT-29, with SNB-19, in the experiment on NCI-H522 and in the experiment with Malme-3M was > 100 µM (inactive) in each case.

For the compound `CCOc1ccc(-c2oc(/C=N/NS(=O)(=O)c3ccc(C)cc3)c([N+](=O)[O-])c2-c2ccc(OCC)cc2)cc1`, the GI50 in the experiment with SF-268 is 17.9 µM (inactive); with LXFL 529, 9.93 µM (inactive); in the experiment with UACC-257, 16 µM (inactive); with M19-MEL, 3.72 µM (inactive); in the experiment on OVCAR-4, 11.3 µM (inactive); in the experiment on SN12C, 12.8 µM (inactive). Besides, the GI50 was 12.4 µM (inactive) with 786-0; 14.9 µM (inactive) in the experiment with A498; 14.4 µM (inactive) in the experiment with NCI-H226; 19.4 µM (inactive) in the experiment on A549; 5.65 µM with HCT-15; 12.4 µM (inactive) in the experiment on SK-MEL-28. Besides, the GI50 in the experiment with CAKI-1 was 10.3 µM (inactive); in the experiment with HT-29 it was 5.19 µM (inactive); in the experiment on SNB-19 it was 15 µM (inactive); in the experiment on NCI-H522 it was 5.96 µM (inactive); with Malme-3M, 19.1 µM (inactive).
